Measured values published in US9029337B2, “Modulation of factor 7 expression” (Isis Pharmaceuticals, Inc., priority 2007, dated 2015).

What was measured:
Format in all cases: in vivo, mouse
BALB/c mice = assay: Tail bleeding assay
Method: (§1) Mice not receiving treatment with FeCl3 solution were evaluated in a tail bleeding chamber. Mice were placed into the bleeding chamber two days after the final treatment of ISIS 403102 or PBS. Mice were anesthetized in the chamber with isofluorane and a small piece of tail (approximately 4 mm from the tip) was cut with sterile scissors. The cut tail was immediately placed in a 15 mL Falcon tube filled with approximately 10 mL of 0.9% NaCl buffer solution warmed to 37° C. The blood was collected over the course of 40 minutes. The saline filled tubes were weighed both before and after bleeding.
Tail-bleeding was measured to observe whether treatment with ISIS 403102 or warfarin causes internal hemorrhage in mice. ISIS 403102 and warfarin (Coumadin®) were evaluated in the tail bleeding assay. Six groups of BALB/c mice were treated with 1.25 mg/kg, 2.5 mg/kg, 5 mg/kg, 10 mg/kg, 20 mg/kg, or 40 mg/kg of ISIS 403102, administered subcutaneously twice a week for 3 weeks. An additional 6 groups of BALB/c mice were treated with 0.5 mg/kg, 1 mg/kg, 2 mg/kg, 3 mg/kg, 4 mg/kg, and 5 mg/kg of warfarin, administered intraperioneally daily for 6 days. A separate control group of BALB/c mice was treated with PBS, administered subcutaneously twice a week for 3 weeks.
as §1, with “Two” for “Mice not receiving treatment with FeCl3 solution were evaluated in a tail bleeding chamber. Mice were placed into the bleeding chamber two”, “403102, warfarin,” for “403102”, “PBS, mice were placed in a tail bleeding chamber.” for “PBS.”
ISIS 403102 and Apixaban were evaluated in BALB/c mice. In a first group of BALB/c mice, 40 mg/kg of ISIS 403102 was administered subcutaneously twice a week for 3 weeks. An additional 3 groups of BALB/c mice were treated with 5 mg/kg and 10 mg/kg of Apixaban, administered in a single intraperitoneal dose, and 10 mg/kg of Apixaban administered as a single subcutaneous dose. A control group of BALB/c mice was treated with PBS, administered subcutaneously twice a week for 3 weeks.
as §1, with “Two” for “Mice not receiving treatment with FeCl3 solution were evaluated in a tail bleeding chamber. Mice were placed into the bleeding chamber two”, “PBS, mice were placed in a tail bleeding chamber. Mice from the groups treated with Apixaban were analyzed 30 minutes after the single dose.” for “PBS.”, “weighed” for “weighed both”

murine Factor 7 mRNA = assay: Liver Factor 7 mRNA in the FeCl3 induced venous thrombosis model; conditions: Example 15
Method: (§2) Three groups of BALB/c mice were injected with 25 mg/kg, 37.5 mg/kg, or 50 mg/kg of ISIS 403102, administered subcutaneously twice a week for 3 weeks. Two control groups of BALB/c mice were treated with PBS, administered subcutaneously twice a week for 3 weeks. Thrombus formation was induced with FeCl3 in half of the mice while the rest of the mice were assayed for tail bleeding. Two days after receiving the last dose of ISIS 403102 or PBS, mice were anesthetized with 150 mg/kg ketamine mixed with 10 mg/kg xylazine administered by intraperitoneal injection. Thrombus formation was induced with FeCl3 in all groups of the VT mice except the first control group.
(§3) In mice undergoing FeCl3 treatment, thrombus formation was induced by applying a piece of filter paper (2×4 mm) pre-saturated with 10% FeCl3 solution directly on the vena cava. After 3 minutes of exposure, the filter paper was removed. Thirty minutes after the filter paper application, a fixed length of the vein containing the thrombus was dissected out for platelet analysis. Liver was collected for RNA analysis.
RNA was extracted from liver tissue for real-time RT-PCR analysis of Factor 7. Results are presented as percent inhibition of Factor 7, relative to PBS control.
ISIS 403102 and warfarin (Coumadin®) were evaluated in BALB/c mice. Four groups of BALB/c mice were treated with 5 mg/kg, 10 mg/kg, 20 mg/kg, or 40 mg/kg of ISIS 403102, administered subcutaneously twice a week for 3 weeks. Two days after receiving the last dose of ISIS 403102, mice were anesthetized with 150 mg/kg ketamine mixed with 10 mg/kg xylazine administered by intraperitoneal injection. A fifth group of BALB/c mice was treated with 3 mg/kg of warfarin, administered intraperioneally daily for 6 days. Four hours after the last dose of warfarin, mice were sacrificed. A control group of BALB/c mice were treated with PBS, administered subcutaneously twice a week for 3 weeks. Two days after the last dose of PBS, mice were anesthetized with 150 mg/kg ketamine mixed with 10 mg/kg xylazine administered by intraperitoneal injection. Thrombus formation was induced with FeCl3 in groups of mice except the first control group.

platelet factor-4 (PF-4) = assay: Thrombus formation by real-time RT-PCR quantification of PF-4 in the FeCl3 induced venous thrombosis model; conditions: Example 16; dose of 1 mg/kg and higher, intraperitoneally daily for 6 days
Method: as §2, §3
(§4) Real-time RT-PCR quantification of platelet factor-4 (PF-4) was used to quantify platelets in the vena cava as a measure of thrombus formation. Results are presented as a percentage of PF-4 in ISIS 403102, as compared to the two PBS-treated control groups. […] Therefore, antisense oligonucleotides are useful for inhibiting thrombus and clot formation.
ISIS 403102 and warfarin (Coumadin®) were evaluated in BALB/c mice. Four groups of BALB/c mice were treated with 5 mg/kg, 10 mg/kg, 20 mg/kg, or 40 mg/kg of ISIS 403102, administered subcutaneously twice a week for 3 weeks. Two days after receiving the last dose of ISIS 403102, mice were anesthetized with 150 mg/kg ketamine mixed with 10 mg/kg xylazine administered by intraperitoneal injection. Six additional groups of BALB/c mice was treated with 0.5 mg/kg, 1 mg/kg, 2 mg·kg, 3 mg/kg, 4 mg/kg, or 5 mg/kg of warfarin, administered intraperioneally daily for 6 days. Four hours after the last dose of warfarin, mice were sacrificed. A control group of BALB/c mice were treated with PBS, administered subcutaneously twice a week for 3 weeks. Two days after the last dose of PBS, mice were anesthetized with 150 mg/kg ketamine mixed with 10 mg/kg xylazine administered by intraperitoneal injection. Thrombus formation was induced with FeCl3 in groups of mice except the first control group.
as §4, with “403102 or warfarin treated mice,” for “403102,”, “Therefore, ISIS” for “Therefore,”

403102 (antisense CCATAGAACAGCTTCACAGG; chemistry not given here) [compound 403102]
Blood (g), tail bleeding (BALB/c mice; mouse, in vivo, sc, 25 mg/kg): 0.06 g
Blood (g), tail bleeding (BALB/c mice; mouse, in vivo, sc, 37.5 mg/kg): 0.06 g
Blood (g), tail bleeding (BALB/c mice; mouse, in vivo, sc, 50 mg/kg): 0.10 g

COc1ccc(-n2nc(C(N)=O)c3c2C(=O)N(c2ccc(N4CCCCC4=O)cc2)CC3)cc1 [apixaban, Apixaban]
Blood (g), tail bleeding (BALB/c mice; BALB/c, mouse, in vivo, ip, 5 mg/kg, 30 min): 0.22 g
Blood (g), tail bleeding (BALB/c mice; BALB/c, mouse, in vivo, ip, 10 mg/kg, 30 min): 0.58 g
Blood (g), tail bleeding (BALB/c mice; BALB/c, mouse, in vivo, sc, 10 mg/kg, 30 min): 0.04 g
bleeding compared to PBS treated mice (BALB/c mice; mouse, in vivo, ip, 5 mg/kg): same amount of bleeding as PBS treated mice
bleeding compared to PBS treated mice (BALB/c mice; mouse, in vivo, ip, 10 mg/kg): increased bleeding
bleeding compared to PBS treated mice (BALB/c mice; mouse, in vivo, sc, 10 mg/kg): less bleeding than PBS mice

CC(=O)CC(c1ccccc1)c1c(O)c2ccccc2oc1=O (stereo not shown) [warfarin]
reduction of Factor 7 mRNA as compared to the PBS control (murine Factor 7 mRNA; 3 mg/kg intraperitoneally daily for 6 days): did not result in significant reduction of Factor 7
% inhibition of Factor 7 mRNA, relative to PBS control (murine Factor 7 mRNA; BALB/c mice liver, 3 mg/kg i.p. daily for 6 days, four hours after last dose): 10%
bleeding as compared to PBS control mice (BALB/c mice; Example 17, 0.5-5 mg/kg intraperitoneally daily for 6 days): did increase bleeding
Blood (g), tail bleeding (BALB/c mice; Example 17, BALB/c mice, 0.5 mg/kg i.p. daily for 6 days, blood collected over 40 minutes): 0.16 g
Blood (g), tail bleeding (BALB/c mice; Example 17, BALB/c mice, 1 mg/kg i.p. daily for 6 days, blood collected over 40 minutes): 0.28 g
Blood (g), tail bleeding (BALB/c mice; Example 17, BALB/c mice, 2 mg/kg i.p. daily for 6 days, blood collected over 40 minutes): 0.58 g
Blood (g), tail bleeding (BALB/c mice; Example 17, BALB/c mice, 3 mg/kg i.p. daily for 6 days, blood collected over 40 minutes): 0.78 g
Blood (g), tail bleeding (BALB/c mice; Example 17, BALB/c mice, 4 mg/kg i.p. daily for 6 days, blood collected over 40 minutes): 0.66 g
Blood (g), tail bleeding (BALB/c mice; Example 17, BALB/c mice, 5 mg/kg i.p. daily for 6 days, blood collected over 40 minutes): 0.93 g
PF-4 in comparison to the PBS control (platelet factor-4 (PF-4)): reduction of PF-4
